# How the values were obtained:
# Assay type in all cases: cell-based, human
# [1] = tested on: ΔXPA cells; assay: Long-term colony formation assay after UV irradiation; settings: 0.5 mM acetohexamide for 6 hours, then UV; 10 days in culture (FIG. 1E)
# Source text: A. Schematic representation of the experimental setup used to perform the high-throughput drug screen, where drugs were used at five-times maximal plasma concentration (CLOUD; CeMM library of unique drugs). B. Bubble plot displaying the drugs used plotted against cell viability. Light grey bubbles indicate wildtype (WT) cells, dark grey bubbles indicate XPA-deficient cells (ΔXPA). […] C. Chemical structure of acetohexamide. D. Dose-response curve of WT and ΔXPA cells treated with or without 0.5 mM acetohexamide for 6 hours, followed by UV irradiation. Survival was assessed after 3 days, using CellTiter-Glo. […] Error bars indicate SEM (n=3). E. Colony formation using the same conditions indicated in (D), where cells were kept in culture for 10 days following UV irradiation, following which they were fixed and stained.
# Cells were treated with UV at different doses with or without drug pre-treatment and then seeded into 6-well plates, at a density of 1,000 cells/well, in duplicates for 2 weeks until visible colonies were formed. Then, the medium was removed, colonies were washed with PBS and fixed using 3.7% paraformaldehyde (PFA) for 1 hour. Subsequently, the PFA was removed and colonies were stained with 0.1% crystal violet in 5% ethanol solution for 1 hour. Next, the staining solution was removed and the wells were washed, imaged and quantified using CellProfiler.
# [2] = tested on: XPA-deficient HAP1 cells (ΔXPA); assay: High-throughput drug screen for agents that alleviate UV sensitivity of NER-deficient cells; settings: drug at five times maximal plasma concentration for 24 hours, then UV; viability after 3 days
# Source text: An in-house drug library of around 300 compounds representing all structurally distinct Food and Drug Administration (FDA) approved compounds was used to allow for potential drug repurposing. First, an NER-deficient cell line was generated by making a frameshift mutation in XPA, one of the central components of NER that functions in both TC-NER and GG-NER, utilizing CRISPR-Cas9 in the human near haploid cell line HAP1 (denoted ΔXPA) (FIG. 5A). […] Next, ΔXPA and wildtype cells were exposed to the drug library (with each drug used at five times maximal plasma concentration) for 24 hours, followed by UV exposure (at a dose selected to kill ΔXPA cells but not wildtype cells) (FIGS. 1A and 5D). The compounds were scored based on their efficiency to improve cellular survival of ΔXPA cells, compared to wildtype cells (FIG. 1B). […]
# Fifty nL of compound per well was transferred into 384-well plates (Corning 3712) from DMSO stock plates using acoustic transfer (Labcyte Echo 520). […] Three days later cell viability was determined using Cell Titer-Glo (Promega). […] For data analysis, the percentage of control was calculated and the signal of the DMSO irradiated sample was used to set values to 0% while the DMSO non-irradiated sample was used to set the values to 100%. […]
# [3] = tested on: WT and ΔXPA cells; assay: Cell cycle analysis (propidium iodide, FACS); settings: 0.5 mM for 6 hours, WT vs ΔXPA (FIG. 8A)
# Procedure: A. WT and ΔXPA cells were either treated with DMSO or 0.5 mM acetohexamide for 6 hours. Cell cycle profiles were determined using propidium iodide (P1) staining followed by FACS analysis. B-D. Survival of WT HAP1 cells treated with either DMSO or 0.5 mM acetohexamide for 6 hours, followed by exposure to the indicated DNA damaging agents (MMC: mitomycin C; HU: hydroxyl urea; MMS: methyl methanesulfonate). Survival was assessed after 3 days using CellTitre-Glo. E. Cell viability of WT cells treated either with 0.5 mM acetohexamide or 30 μM N-acetylcysteine (NAC) for 6 hours, followed by 30 J/M^2 UV exposure.
# Cells were treated with either DMSO or acetohexamide as indicated. Cell cycle stages were identified using propidium iodide (PI) staining. Briefly, cells were harvested, resuspended in PBS and fixed overnight with cold 70% ethanol. After centrifugation, ethanol was removed and cells were resuspended in PBS containing 1 μg/mL RNase A and […]. Finally, cells were analyzed on a FACScalibur flow cytometer. Following cell acquisition, analysis was performed using FlowJo software (Tree Star).
smiles,measurement,setting,value
CC(=O)c1ccc(S(=O)(=O)NC(=O)NC2CCCCC2)cc1 [acetohexamide],"UV sensitivity of ΔXPA cells, long-term colony formation assay",[1],alleviated the UV sensitivity of ΔXPA cells almost to the level of wildtype cells
same,correction of survival of ΔXPA cells compared to wildtype cells,[2],> 40%
same,cell cycle profiles,[3],no difference between wildtype or ΔXPA cells upon acetohexamide treatment

# Reference: patent US20200171056A1, “SULFONYLUREA COMPOUNDS IN THE TREATMENT OF DISEASE ASSOCIATED WITH UV-INDUCED DAMAGE” (CeMM - Forschungszentrum für Molekulare Medizin GmbH, priority 2017, published 2020)
